Tests used:
Format in all cases: in vivo
[1] = tested on: Italian ryegrass (Lolium multiflorum); test: Test A preemergence, visual plant response rating; conditions: for Ryegrass, Italian plant response rating: 125 g ai/ha, preemergence, 0 to 100 scale, 0 no effect, 100 complete control; for Ryegrass, Italian plant response rating (0 to 100 scale): 500 g ai/ha Preemergence, approx. 10 days
Outline: (§1)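 Greenhouse evaluation, approx. 10 days post-spray. Soil: loam + sand. Postemergence stage: 1–2 leaves, height 2–10 cm. Vehicle: non-phytotoxic solvent blend with surfactant. Score: visual injury on a 0 (no effect) to 100 (complete control) scale.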

[2] = tested on: barnyardgrass (Echinochloa crus-galli); test: Test A preemergence, visual plant response rating; conditions: for Barnyardgrass plant response rating: 125 g ai/ha, preemergence, 0 to 100 scale, 0 no effect, 100 complete control; for Barnyardgrass plant response rating (0 to 100 scale): 500 g ai/ha Preemergence, approx. 10 days
Outline: as §1

[3] = tested on: foxtail, giant (giant foxtail, Setaria faberii); test: Test A preemergence, visual plant response rating; conditions: for Foxtail, Giant plant response rating: 125 g ai/ha, preemergence, 0 to 100 scale, 0 no effect, 100 complete control; for Foxtail, Giant plant response rating (0 to 100 scale): 500 g ai/ha Preemergence, approx. 10 days
Outline: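 Ratings use a 0–100 visual scale (100 = complete control) against untreated controls, scored about 10 days after greenhouse treatment. Test chemicals were formulated in surfactant-containing non-phytotoxic solvent and applied either as soil spray after planting (preemergence) or onto one- to two-leaf, 2–10 cm plants (postemergence).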

kochia (Kochia scoparia) [4] = test: Test A preemergence, visual plant response rating; conditions: for Kochia plant response rating: 125 g ai/ha, preemergence, 0 to 100 scale, 0 no effect, 100 complete control; for Kochia plant response rating (0 to 100 scale): 500 g ai/ha Preemergence, approx. 10 days
Outline: as §1

[5] = tested on: pigweed (Amaranthus retroflexus); test: Test A preemergence, visual plant response rating; conditions: for Pigweed plant response rating: 125 g ai/ha, preemergence, 0 to 100 scale, 0 no effect, 100 complete control; for Pigweed plant response rating (0 to 100 scale): 500 g ai/ha Preemergence, approx. 10 days
Outline: as §1

[6] = tested on: ragweed (common ragweed, Ambrosia elatior); test: Test A preemergence, visual plant response rating; conditions: for Ragweed plant response rating: 125 g ai/ha, preemergence, 0 to 100 scale, 0 no effect, 100 complete control; for Ragweed plant response rating (0 to 100 scale): 500 g ai/ha Preemergence, approx. 10 days
Outline: as §1

[7] = tested on: Italian ryegrass (Lolium multiflorum); test: Test A postemergence, visual plant response rating
Outline: as §1

[8] = tested on: barnyardgrass (Echinochloa crus-galli); test: Test A postemergence, visual plant response rating; conditions: for Barnyardgrass plant response rating (0 to 100 scale): 500 g ai/ha, postemergence, 0 is no effect, 100 is complete control; for Barnyardgrass plant response rating: Postemergence, 125 g ai/ha, 0 to 100 scale (0 no effect, 100 complete control)
Outline: as §1

[9] = tested on: blackgrass (Alopecurus myosuroides); test: Test A postemergence, visual plant response rating; conditions: for Blackgrass plant response rating (0 to 100 scale): 500 g ai/ha, postemergence, 0 is no effect, 100 is complete control; for Blackgrass plant response rating: Postemergence, 125 g ai/ha, 0 to 100 scale (0 no effect, 100 complete control)
Outline: as §1

corn (Zea mays) = test: Test A postemergence, visual plant response rating; conditions: for Corn plant response rating (0 to 100 scale): 500 g ai/ha, postemergence, 0 is no effect, 100 is complete control; for Corn plant response rating: Postemergence, 125 g ai/ha, 0 to 100 scale (0 no effect, 100 complete control)
Outline: as §1

[10] = tested on: foxtail, giant (giant foxtail, Setaria faberii); test: Test A postemergence, visual plant response rating; conditions: for Foxtail, Giant plant response rating (0 to 100 scale): 500 g ai/ha, postemergence, 0 is no effect, 100 is complete control; for Foxtail, Giant plant response rating: Postemergence, 125 g ai/ha, 0 to 100 scale (0 no effect, 100 complete control)
Outline: as §1

[11] = tested on: galium (catchweed bedstraw, Galium aparine); test: Test A postemergence, visual plant response rating; conditions: for Galium plant response rating (0 to 100 scale): 500 g ai/ha, postemergence, 0 is no effect, 100 is complete control; for Galium plant response rating: Postemergence, 125 g ai/ha, 0 to 100 scale (0 no effect, 100 complete control)
Outline: as §1

kochia (Kochia scoparia) [12] = test: Test A postemergence, visual plant response rating; conditions: for Kochia plant response rating (0 to 100 scale): 500 g ai/ha, postemergence, 0 is no effect, 100 is complete control; for Kochia plant response rating: Postemergence, 125 g ai/ha, 0 to 100 scale (0 no effect, 100 complete control)
Outline: as §1

[13] = tested on: pigweed (Amaranthus retroflexus); test: Test A postemergence, visual plant response rating; conditions: for Pigweed plant response rating (0 to 100 scale): 500 g ai/ha, postemergence, 0 is no effect, 100 is complete control; for Pigweed plant response rating: Postemergence, 125 g ai/ha, 0 to 100 scale (0 no effect, 100 complete control)
Outline: as §1

[14] = tested on: ragweed (common ragweed, Ambrosia elatior); test: Test A postemergence, visual plant response rating; conditions: for Ragweed plant response rating (0 to 100 scale): 500 g ai/ha, postemergence, 0 is no effect, 100 is complete control; for Ragweed plant response rating: Postemergence, 125 g ai/ha, 0 to 100 scale (0 no effect, 100 complete control)
Outline: as §1

[15] = tested on: wheat (Triticum aestivum); test: Test A postemergence, visual plant response rating; conditions: for Wheat plant response rating: 0 to 100 scale (0 no effect, 100 complete control)
Outline: as §1

[16] = tested on: barnyardgrass (Echinochloa crus-galli); test: Test B flooded paddy test, visual plant response rating; conditions: 250 g ai/ha, Flood, applied to paddy water, 2-leaf stage, evaluated after 13 to 15 days
Outline: (§2)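 Test pots are flooded 3 cm above the soil at treatment, and the test substance is introduced into this standing water. After keeping the flood level and growing plants, treated at the 2-leaf stage, for 13 to 15 days under glass, injury is assessed visually versus controls.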

[17] = tested on: ducksalad (Heteranhera limosa); test: as above; conditions: 250 g ai/ha, Flood, applied to paddy water, 2-leaf stage, evaluated after 13 to 15 days
Outline: as §2

rice (Oryza sativa) = test: as above; conditions: 250 g ai/ha, Flood, applied to paddy water, 2-leaf stage, evaluated after 13 to 15 days
Outline: as §2

[18] = tested on: sedge, umbrella (small-flower umbrella sedge, Cyperus difformis); test: as above; conditions: 250 g ai/ha, Flood, applied to paddy water, 2-leaf stage, evaluated after 13 to 15 days
Outline: as §2

[19] = 500 g ai/ha, postemergence, 0 is no effect, 100 is complete control

| Compound | Ryegrass, Italian plant response rating [1] | Ryegrass, Italian plant response rating (0 to 100 scale) [1] | Barnyardgrass plant response rating [2] | Barnyardgrass plant response rating (0 to 100 scale) [2] | Foxtail, Giant plant response rating [3] | Foxtail, Giant plant response rating (0 to 100 scale) [3] | Kochia plant response rating (kochia (Kochia scoparia) [4]) | Kochia plant response rating (0 to 100 scale) (kochia (Kochia scoparia) [4]) | Pigweed plant response rating [5] | Pigweed plant response rating (0 to 100 scale) [5] | Ragweed plant response rating [6] | Ragweed plant response rating (0 to 100 scale) [6] | Ryegrass, Italian plant response rating (0 to 100 scale) [7, 19] | Barnyardgrass plant response rating (0 to 100 scale) [8] | Barnyardgrass plant response rating [8] | Blackgrass plant response rating (0 to 100 scale) [9] | Blackgrass plant response rating [9] | Corn plant response rating (0 to 100 scale) (corn (Zea mays)) | Corn plant response rating (corn (Zea mays)) | Foxtail, Giant plant response rating (0 to 100 scale) [10] | also measured |
| --- | --- | --- | --- | --- | --- | --- | --- | --- | --- | --- | --- | --- | --- | --- | --- | --- | --- | --- | --- | --- | --- |
| CO/N=C(/c1c(O)c(C)nn(C)c1=O)c1ccc(F)c2ccccc12 [Compound 75] | 100 | 100 | 30 | 90 | 70 | 100 | 10 | 90 | 60 | 90 | 80 | 100 | 100 | 70 | 20 | 100 | 90 | 20 | 10 | 80 | Ryegrass, Italian plant response rating ([7]; Postemergence, 125 g ai/ha, 0 to 100 scale (0 no effect, 100 complete control)): 90; Foxtail, Giant plant response rating [10]: 50; Galium plant response rating (0 to 100 scale) [11]: 100; Galium plant response rating [11]: 100; Kochia plant response rating (0 to 100 scale) (kochia (Kochia scoparia) [12]): 90; Kochia plant response rating (kochia (Kochia scoparia) [12]): 70; Pigweed plant response rating (0 to 100 scale) [13]: 90; Pigweed plant response rating [13]: 70; Ragweed plant response rating (0 to 100 scale) [14]: 100; Ragweed plant response rating [14]: 90; Wheat plant response rating (0 to 100 scale) [15, 19]: 80; Wheat plant response rating ([15]; Postemergence, 125 g ai/ha): 60; Plant response rating, Barnyardgrass (0 to 100 scale, 0 is no effect, 100 is complete control) [16]: 0; Plant response rating, Ducksalad (0 to 100 scale, 0 is no effect, 100 is complete control) [17]: 0; Plant response rating, Rice (0 to 100 scale, 0 is no effect, 100 is complete control) (rice (Oryza sativa)): 0; Plant response rating, Sedge, Umbrella (0 to 100 scale, 0 is no effect, 100 is complete control) [18]: 0 |
| CCO/N=C(\c1c(O)c(Cl)nn(C)c1=O)c1cccc2ccccc12 [Compound 146] | 0 | 0 | 60 | 60 | 70 | 80 | 30 | 100 | 80 | 100 | 90 | 100 | 0 | 60 | 30 | 60 | 30 | 20 | 30 | 70 | Ryegrass, Italian plant response rating (0 to 100 scale) ([7]; Postemergence, rate not given, approx. 10 days): 0; Foxtail, Giant plant response rating [10]: 60; Galium plant response rating (0 to 100 scale) [11]: 90; Galium plant response rating [11]: 70; Kochia plant response rating (0 to 100 scale) (kochia (Kochia scoparia) [12]): 80; Kochia plant response rating (kochia (Kochia scoparia) [12]): 60; Pigweed plant response rating (0 to 100 scale) [13]: 90; Pigweed plant response rating [13]: 70; Ragweed plant response rating (0 to 100 scale) [14]: 100; Ragweed plant response rating [14]: 90; Wheat plant response rating ([15]; Postemergence, 500 g ai/ha): 0; Wheat plant response rating (0 to 100 scale) ([15]; Postemergence, approx. 10 days): 0; Plant response rating, Barnyardgrass (0 to 100 scale, 0 is no effect, 100 is complete control) [16]: 0; Plant response rating, Ducksalad (0 to 100 scale, 0 is no effect, 100 is complete control) [17]: 0; Plant response rating, Rice (0 to 100 scale, 0 is no effect, 100 is complete control) (rice (Oryza sativa)): 0; Plant response rating, Sedge, Umbrella (0 to 100 scale, 0 is no effect, 100 is complete control) [18]: 0 |

From patent publication US20210045385A1, “PYRIDAZINONE-SUBSTITUTED KETOXIMES AS HERBICIDES” (FMC Corporation, priority 2018, published 2021)
